According to the supplement of paper PMC10307832:

Columns and labels:
Test in all cases: relative viability (nuclei count vs DMSO), 5 days (fraction); higher = more cells survive
NCI-H1666 = tested on: NCI-H1666
Procedure, shortened: (§1)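 Relative viability is defined as nuclei in treated wells over nuclei in vehicle wells. Duplicate plates were run and medians reported. Lung cancer cell lines in 1536-well plates were dosed by pin tool one day after seeding, with one drug or with a fixed anchor-drug dose plus five library-drug doses (not always all listed) in √10 steps, and nuclei were counted after 5 days.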

NCI-H3122 = tested on: NCI-H3122
Procedure, shortened: as §1

HOP-62 = tested on: HOP-62
Procedure, shortened: as §1

NCI-H1355 = tested on: NCI-H1355
Procedure, shortened: as §1

BEN = tested on: BEN
Procedure, shortened: as §1

NCI-H647 = tested on: NCI-H647
Procedure, shortened: as §1

LU99A = tested on: LU99A
Procedure, shortened: as §1

ABC-1 = tested on: ABC-1
Procedure, shortened: as §1

PC-14 = tested on: PC-14
Procedure, shortened: as §1

NCI-H727 = tested on: NCI-H727
Procedure, shortened: as §1

NCI-H1792 = tested on: NCI-H1792
Procedure, shortened: as §1

NCI-H358 = tested on: NCI-H358
Procedure, shortened: as §1

EPLC-272H = tested on: EPLC-272H
Procedure, shortened: as §1

UMC-11 = tested on: UMC-11
Procedure, shortened: as §1

NCI-H2405 = tested on: NCI-H2405
Procedure, shortened: as §1

HCC-827 = tested on: HCC-827
Procedure, shortened: as §1

NCI-H1975 = tested on: NCI-H1975
Procedure, shortened: as §1

NCI-H838 = tested on: NCI-H838
Procedure, shortened: as §1

NCI-H2170 = tested on: NCI-H2170
Procedure, shortened: as §1

NCI-H322M = tested on: NCI-H322M
Procedure, shortened: as §1

NCI-H520 = tested on: NCI-H520
Procedure, shortened: as §1

NCI-H23 = tested on: NCI-H23
Procedure, shortened: as §1

Work on `O=C(O)CCCCC(CCSCc1ccccc1)SCc1ccccc1` (stereo not given) [CPI-613] + CC(=O)c1c(C)c2cnc(Nc3ccc(N4CCNCC4)cn3)nc2n(C2CCCC2)c1=O [Palbociclib] (partner 0.5 µM) yielded a relative viability (NCI-H1666; first compound 5 µM) of 0.68, a relative viability (NCI-H1666; first compound 15.81 µM) of 0.577 and a relative viability (NCI-H1666; first compound 50 µM) of 0.574. The relative viability (NCI-H1666; first compound 158.11 µM) was 0.469, the relative viability (NCI-H1666; first compound 500 µM) was 0.425 and the relative viability (NCI-H3122; first compound 5 µM) was 0.178. For the same compound, the relative viability (NCI-H3122; first compound 15.81 µM) was 0.198, the relative viability (NCI-H3122; first compound 50 µM) was 0.175 and the relative viability (NCI-H3122; first compound 158.11 µM) was 0.155. The relative viability (NCI-H3122; first compound 500 µM) was 0.145, the relative viability (HOP-62; first compound 5 µM) was 0.437 and the relative viability (HOP-62; first compound 15.81 µM) was 0.45. For the same compound, the relative viability (HOP-62; first compound 50 µM) was 0.427, the relative viability (HOP-62; first compound 158.11 µM) was 0.186 and the relative viability (HOP-62; first compound 500 µM) was 0.126. The relative viability (NCI-H1355; first compound 5 µM) was 0.429, the relative viability (NCI-H1355; first compound 15.81 µM) was 0.408 and the relative viability (NCI-H1355; first compound 50 µM) was 0.424. The relative viability (NCI-H1355; first compound 158.11 µM) was 0.407, the relative viability (NCI-H1355; first compound 500 µM) was 0.105 and the relative viability (BEN; first compound 5 µM) was 0.457. It also gave a relative viability (BEN; first compound 15.81 µM) of 0.506, a relative viability (BEN; first compound 50 µM) of 0.487 and a relative viability (BEN; first compound 158.11 µM) of 0.483. For the same compound, the relative viability (BEN; first compound 500 µM) was 0.42, the relative viability (NCI-H647; first compound 5 µM) was 0.341 and the relative viability (NCI-H647; first compound 15.81 µM) was 0.312. The relative viability (NCI-H647; first compound 50 µM) was 0.316, the relative viability (NCI-H647; first compound 158.11 µM) was 0.022 and the relative viability (NCI-H647; first compound 500 µM) was 0.0072. It also gave a relative viability (LU99A; first compound 5 µM) of 0.383, a relative viability (LU99A; first compound 15.81 µM) of 0.411 and a relative viability (LU99A; first compound 50 µM) of 0.372. The relative viability (LU99A; first compound 158.11 µM) was 0.193, the relative viability (LU99A; first compound 500 µM) was 0.264 and the relative viability (ABC-1; first compound 5 µM) was 0.603. The relative viability (ABC-1; first compound 15.81 µM) was 0.669, the relative viability (ABC-1; first compound 50 µM) was 0.639 and the relative viability (ABC-1; first compound 158.11 µM) was 0.415. The relative viability (ABC-1; first compound 500 µM) was 0.4, the relative viability (PC-14; first compound 5 µM) was 0.534 and the relative viability (PC-14; first compound 15.81 µM) was 0.54. It also gave a relative viability (PC-14; first compound 50 µM) of 0.49, a relative viability (PC-14; first compound 158.11 µM) of 0.0565 and a relative viability (PC-14; first compound 500 µM) of 0.0114. It also gave a relative viability (NCI-H727; first compound 5 µM) of 0.673, a relative viability (NCI-H727; first compound 15.81 µM) of 0.614 and a relative viability (NCI-H727; first compound 50 µM) of 0.566. For the same compound, the relative viability (NCI-H727; first compound 158.11 µM) was 0.655, the relative viability (NCI-H727; first compound 500 µM) was 0.634 and the relative viability (NCI-H1792; first compound 5 µM) was 0.627. It also gave a relative viability (NCI-H1792; first compound 15.81 µM) of 0.607, a relative viability (NCI-H1792; first compound 50 µM) of 0.654 and a relative viability (NCI-H1792; first compound 158.11 µM) of 0.632. For the same compound, the relative viability (NCI-H1792; first compound 500 µM) was 0.666, the relative viability (NCI-H358; first compound 5 µM) was 0.114 and the relative viability (NCI-H358; first compound 15.81 µM) was 0.134. It also gave a relative viability (NCI-H358; first compound 50 µM) of 0.154, a relative viability (NCI-H358; first compound 158.11 µM) of 0.0757 and a relative viability (NCI-H358; first compound 500 µM) of 0.0449. For the same compound, the relative viability (EPLC-272H; first compound 5 µM) was 0.348, the relative viability (EPLC-272H; first compound 15.81 µM) was 0.315 and the relative viability (EPLC-272H; first compound 50 µM) was 0.306. The relative viability (EPLC-272H; first compound 158.11 µM) was 0.316, the relative viability (EPLC-272H; first compound 500 µM) was 0.259 and the relative viability (UMC-11; first compound 5 µM) was 0.346. It also gave a relative viability (UMC-11; first compound 15.81 µM) of 0.354, a relative viability (UMC-11; first compound 50 µM) of 0.323 and a relative viability (UMC-11; first compound 158.11 µM) of 0.23. The relative viability (UMC-11; first compound 500 µM) was 0.216, the relative viability (NCI-H2405; first compound 5 µM) was 0.558 and the relative viability (NCI-H2405; first compound 15.81 µM) was 0.499. It also gave a relative viability (NCI-H2405; first compound 50 µM) of 0.453, a relative viability (NCI-H2405; first compound 158.11 µM) of 0.167 and a relative viability (NCI-H2405; first compound 500 µM) of 0.316. The relative viability (HCC-827; first compound 5 µM) was 0.465, the relative viability (HCC-827; first compound 15.81 µM) was 0.491 and the relative viability (HCC-827; first compound 50 µM) was 0.464. For the same compound, the relative viability (HCC-827; first compound 158.11 µM) was 0.496, the relative viability (HCC-827; first compound 500 µM) was 0.417 and the relative viability (NCI-H1975; first compound 5 µM) was 0.638. The relative viability (NCI-H1975; first compound 15.81 µM) was 0.645, the relative viability (NCI-H1975; first compound 50 µM) was 0.388 and the relative viability (NCI-H1975; first compound 158.11 µM) was 0.562. The relative viability (NCI-H1975; first compound 500 µM) was 0.0655, the relative viability (NCI-H838; first compound 5 µM) was 0.21 and the relative viability (NCI-H838; first compound 15.81 µM) was 0.189. It also gave a relative viability (NCI-H838; first compound 50 µM) of 0.216, a relative viability (NCI-H838; first compound 158.11 µM) of 0.139 and a relative viability (NCI-H838; first compound 500 µM) of 0.0859. For the same compound, the relative viability (NCI-H2170; first compound 5 µM) was 0.379, the relative viability (NCI-H2170; first compound 15.81 µM) was 0.415 and the relative viability (NCI-H2170; first compound 50 µM) was 0.382. The relative viability (NCI-H2170; first compound 158.11 µM) was 0.372, the relative viability (NCI-H2170; first compound 500 µM) was 0.219 and the relative viability (NCI-H322M; first compound 5 µM) was 0.466. The relative viability (NCI-H322M; first compound 15.81 µM) was 0.47, the relative viability (NCI-H322M; first compound 50 µM) was 0.494 and the relative viability (NCI-H322M; first compound 158.11 µM) was 0.513. It also gave a relative viability (NCI-H322M; first compound 500 µM) of 0.288, a relative viability (NCI-H520; first compound 5 µM) of 0.225 and a relative viability (NCI-H520; first compound 15.81 µM) of 0.2. The relative viability (NCI-H520; first compound 50 µM) was 0.169, the relative viability (NCI-H520; first compound 158.11 µM) was 0.119 and the relative viability (NCI-H520; first compound 500 µM) was 0.117. The relative viability (NCI-H23; first compound 5 µM) was 0.465, the relative viability (NCI-H23; first compound 15.81 µM) was 0.465 and the relative viability (NCI-H23; first compound 50 µM) was 0.519. For the same compound, the relative viability (NCI-H23; first compound 158.11 µM) was 0.104 and the relative viability (NCI-H23; first compound 500 µM) was 0.0119.
